Assay results published in patent US11535621B2, “Heterobicyclic amides as inhibitors of CD38” (Ribon Therapeutics, Inc., priority 2019, dated 2022).

What follows are compounds tested against Human CD38 (Homo sapiens (Human), UniProt P28907) (assay: CD38 enzyme assay). Conditions: 2 nM CD38, NAD+ substrate, absorbance at 405 nm.
Type: biochemical
Description: [formula] where SUBcmpd is the subtracted value for the individual compound treated well, SUBmin is the average of the subtracted values of the 4-(((1r,4r)-4-(2-methoxyethoxy)cyclohexyl)amino)-1-methyl-6-(thiazol-5-yl)quinolin-2(1H)-one positive control wells and SUBmax is the average of the subtracted values of the DMSO negative control wells.
The % inhibition values were plotted as a function of compound concentration and the following 4-parameter fit was applied to derive the IC50 values:
[formula] where top and bottom are normally allowed to float, but may be fixed at 100 or 0 respectively in a 3-parameter fit. The Hill Coefficient is normally allowed to float but may also be fixed at 1 in a 3-parameter fit. Y is the % inhibition and X is the compound concentration.

Chain of Human CD38 (P28907 whole entry): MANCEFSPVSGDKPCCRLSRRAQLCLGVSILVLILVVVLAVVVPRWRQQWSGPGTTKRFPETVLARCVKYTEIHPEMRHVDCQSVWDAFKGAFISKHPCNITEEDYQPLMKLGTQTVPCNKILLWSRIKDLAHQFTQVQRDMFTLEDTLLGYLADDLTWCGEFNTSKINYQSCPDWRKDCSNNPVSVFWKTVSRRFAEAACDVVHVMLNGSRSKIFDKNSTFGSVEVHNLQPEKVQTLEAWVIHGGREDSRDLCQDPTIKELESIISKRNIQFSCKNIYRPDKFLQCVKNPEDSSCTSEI

Question: How did the IC50 turn out when `O=C(N[C@H]1CC[C@H](CCO)CC1)c1nc(-n2ccnc2)nc2cc[nH]c12` [Example 200, N-((1r,4r)-4-(2-hydroxyethyl)cyclohexyl)-2-(1H-imidazol-1-yl)-5H-pyrrolo[3,2-d]pyrimidine-4-carboxamide] was run?
Answer: The IC50 was less than 0.01 µM.

Question: How did the IC50 turn out when `O=C(N[C@H]1CC[C@H](O)CC1)c1nc(-n2ccnc2)nc2cc[nH]c12` [Example 177] was run?
Answer: Its IC50 is less than 0.01 µM.

Question: Which IC50 does the source give for `O=C(Nc1ccc(OCC(F)(F)F)nc1)c1nc(-n2ccnc2)cc2cn[nH]c12` [Example 231, 5-(1H-imidazol-1-yl)-N-(6-(2,2,2-trifluoroethoxy)pyridin-3-yl)-1H-pyrazolo[3,4-c]pyridine-7-carboxamide] here?
Answer: Its IC50 is less than 0.01 µM.

Question: Which IC50 does the source give for `CC(C)(O)[C@H]1CC[C@H](NC(=O)c2nc(-n3ccnc3)nc3ccsc23)CC1` [Example 210, N-((1r,4r)-4-(2-hydroxypropan-2-yl)cyclohexyl)-2-(1H-imidazol-1-yl)thieno[3,2-d]pyrimidine-4-carboxamide] here?
Answer: Its IC50 is less than 0.01 µM.

Question: For `O=C(NCc1c(F)cccc1C(F)(F)F)c1cc(-n2ccnc2)nc2cn[nH]c12` [Example 15, N-(2-Fluoro-6-(trifluoromethyl)benzyl)-5-(1H-imidazol-1-yl)-1H-pyrazolo[4,3-b]pyridine-7-carboxamide], which IC50 is on record?
Answer: Its IC50 is 0.1 to 1 µM.

Question: With `O=C(N[C@H]1CC[C@H](CO)CC1)c1nc(-n2ccnc2)nc2cc[nH]c12` [Example 174] as the compound, how does the IC50 read?
Answer: Its IC50 is less than 0.01 µM.

Question: `Cn1cnc(NC(=O)c2nc(-n3ccnc3)nc3cc[nH]c23)c1` [Example 95, 2-(1H-Imidazol-1-yl)-N-(1-methyl-1H-imidazol-4-yl)-5H-pyrrolo[3,2-d]pyrimidine-4-carboxamide] was tested. Which IC50 did it give?
Answer: Its IC50 is 0.01 to 0.1 µM.

Question: `O=C(Nc1ccc(N2CCNCC2)nc1)c1nc(-n2ccnc2)cc2cn[nH]c12` [Example 224, 5-(1H-imidazol-1-yl)-N-(6-(piperazin-1-yl)pyridin-3-yl)-1H-pyrazolo[3,4-c]pyridine-7-carboxamide] was tested. Which IC50 did it give?
Answer: The IC50 was less than 0.01 µM.

Question: Which IC50 does the source give for `C[C@@H](O)[C@H]1CC[C@H](NC(=O)c2nc(-n3ccnc3)cc3cn[nH]c23)CC1` [Example 192b, N-((1R,4r)-4-((R)-1-hydroxyethyl)cyclohexyl)-5-(1H-imidazol-1-yl)-1H-pyrazolo[3,4-c]pyridine-7-carboxamide] here?
Answer: The IC50 was less than 0.01 µM.

Question: Which IC50 does the source give for `O=C(Nc1ccc2c(c1)CNC2)c1nc(-n2ccnc2)cc2cn[nH]c12` [Example 236, 5-(1H-imidazol-1-yl)-N-(isoindolin-5-yl)-1H-pyrazolo[3,4-c]pyridine-7-carboxamide] here?
Answer: Its IC50 is less than 0.01 µM.

Question: `O=C(Nc1ccc(C(F)(F)F)nc1)c1nc(-n2ccnc2)cc2cn[nH]c12` [Example 229, 5-(1H-imidazol-1-yl)-N-(6-(trifluoromethyl)pyridin-3-yl)-1H-pyrazolo[3,4-c]pyridine-7-carboxamide] was tested. Which IC50 did it give?
Answer: The IC50 was less than 0.01 µM.

Question: With `C[C@]1(NCC(F)(F)F)CC[C@@H](NC(=O)c2nc(-n3ccnc3)cc3cn[nH]c23)CC1` [Example 239, 5-(1H-imidazol-1-yl)-N-((1s,4s)-4-methyl-4-((2,2,2-trifluoroethyl)amino)cyclohexyl)-1H-pyrazolo[3,4-c]pyridine-7-carboxamide] as the compound, how does the IC50 read?
Answer: The IC50 was less than 0.01 µM.

Question: `COCn1cc(NC(=O)c2nc(-n3ccnc3)nc3cc[nH]c23)cn1` [Example 132] was tested. Which IC50 did it give?
Answer: Its IC50 is less than 0.01 µM.

Question: How did the IC50 turn out when `CC(C)(O)[C@H]1CC[C@H](NC(=O)c2nc(-n3ccnc3)cc3ccsc23)CC1` [Example 260, N-((1r,4r)-4-(2-hydroxypropan-2-yl)cyclohexyl)-5-(1H-imidazol-1-yl)thieno[2,3-c]pyridine-7-carboxamide] was run?
Answer: The IC50 was less than 0.01 µM.

Question: How did the IC50 turn out when `O=C(N[C@H]1CC[C@H](NCC(F)(F)F)CC1)c1nc(-n2ccnc2)cc2cn[nH]c12` [Example 115, 5-(1H-imidazol-1-yl)-N-((1r,4r)-4-((2,2,2-trifluoroethyl)amino)cyclohexyl)-1H-pyrazolo[3,4-c]pyridine-7-carboxamide] was run?
Answer: The IC50 was 0.01 to 0.1 µM.

Question: With `O=C(N[C@H]1CC[C@H](OCC(F)(F)F)CC1)c1nc(-n2ccnc2)cc2cn[nH]c12` [Example 252, 5-(1H-imidazol-1-yl)-N-((1r,4r)-4-(2,2,2-trifluoroethoxy)cyclohexyl)-1H-pyrazolo[3,4-c]pyridine-7-carboxamide] as the compound, how does the IC50 read?
Answer: The IC50 was 0.01 to 0.1 µM.

Question: `O=C(N[C@H]1CC[C@H](CNCC(F)(F)F)CC1)c1nc(-n2ccnc2)cc2cn[nH]c12` [Example 250, 5-(1H-imidazol-1-yl)-N-((1r,4r)-4-(((2,2,2-trifluoroethyl)amino)methyl)cyclohexyl)-1H-pyrazolo[3,4-c]pyridine-7-carboxamide] was tested. Which IC50 did it give?
Answer: The IC50 was 0.01 to 0.1 µM.

Question: `CN1CCC(NC(=O)c2nc(-n3ccnc3)nc3cc[nH]c23)C1` (centres unmarked) [Example 74, 2-(1H-Imidazol-1-yl)-N-(1-methylpyrrolidin-3-yl)-5H-pyrrolo[3,2-d]pyrimidine-4-carboxamide] was tested. Which IC50 did it give?
Answer: The IC50 was 0.1 to 1 µM.

Question: For `O=C(NC1CCOCC1)c1nc(-n2ccnc2)nc2cc[nH]c12` [Example 62, 2-(1H-Imidazol-1-yl)-N-(tetrahydro-2H-pyran-4-yl)-5H-pyrrolo[3,2-d]pyrimidine-4-carboxamide], which IC50 is on record?
Answer: Its IC50 is 0.01 to 0.1 µM.

Question: For `O=C(N[C@H]1CC[C@@H](C(F)(F)F)CC1)c1nc(-n2ccnc2)nc2cc[nH]c12` [Example 39a, 2-(1H-Imidazol-1-yl)-N-((1s,4s)-4-(trifluoromethyl)cyclohexyl)-5H-pyrrolo[3,2-d]pyrimidine-4-carboxamide], which IC50 is on record?
Answer: Its IC50 is less than 0.01 µM.

Question: Which IC50 does the source give for `COCCO[C@H]1CC[C@H](NC(=O)c2nc(-n3ccnc3)cc3ccsc23)CC1` [Example 198, 5-(1H-imidazol-1-yl)-N-((1r,4r)-4-(2-methoxyethoxy)cyclohexyl)thieno[2,3-c]pyridine-7-carboxamide] here?
Answer: The IC50 was 0.01 to 0.1 µM.

Question: For `COCCO[C@H]1CC[C@H](NC(=O)c2nc(-n3ccnc3)nc3ccsc23)CC1` [Example 18, 2-(1H-Imidazol-1-yl)-N-((1r,4r)-4-(2-methoxyethoxy)cyclohexyl)thieno[3,2-d]pyrimidine-4-carboxamide], which IC50 is on record?
Answer: Its IC50 is 0.01 to 0.1 µM.

Question: `O=C(NC1CCC(F)(F)CC1)c1nc(-n2ccnc2)nc2cn[nH]c12` [Example 159] was tested. Which IC50 did it give?
Answer: The IC50 was less than 0.01 µM.

Question: With `O=C(NC1CCCOC1)c1nc(-n2ccnc2)nc2cc[nH]c12` (centres unmarked) [Example 27, 2-(1H-Imidazol-1-yl)-N-(tetrahydro-2H-pyran-3-yl)-5H-pyrrolo[3,2-d]pyrimidine-4-carboxamide] as the compound, how does the IC50 read?
Answer: The IC50 was less than 0.01 µM.

Question: With `CN(CCC(F)(F)F)[C@H]1CC[C@H](NC(=O)c2nc(-n3ccnc3)nc3cc[nH]c23)CC1` [Example 110, 2-(1H-imidazol-1-yl)-N-((1r,4r)-4-(methyl(3,3,3-trifluoropropyl)amino)cyclohexyl)-5H-pyrrolo[3,2-d]pyrimidine-4-carboxamide] as the compound, how does the IC50 read?
Answer: The IC50 was 0.01 to 0.1 µM.

Question: `O=C(NCC1CCCCC1)c1nc(-n2ccnc2)nc2cc[nH]c12` [Example 78, N-(Cyclohexylmethyl)-2-(1H-imidazol-1-yl)-5H-pyrrolo[3,2-d]pyrimidine-4-carboxamide] was tested. Which IC50 did it give?
Answer: Its IC50 is 0.01 to 0.1 µM.

Question: For `O=C(N[C@H]1CC[C@@H](OCC(F)(F)F)CC1)c1nc(-n2ccnc2)cc2cn[nH]c12` [Example 251, 5-(1H-imidazol-1-yl)-N-((1s,4s)-4-(2,2,2-trifluoroethoxy)cyclohexyl)-1H-pyrazolo[3,4-c]pyridine-7-carboxamide], which IC50 is on record?
Answer: Its IC50 is 0.01 to 0.1 µM.

Question: How did the IC50 turn out when `O=C(NCc1c(F)cccc1C(F)(F)F)c1nc(-n2ccnc2)nc2nc[nH]c12` [Example 46, N-(2-Fluoro-6-(trifluoromethyl)benzyl)-2-(1H-imidazol-1-yl)-7H-purine-6-carboxamide] was run?
Answer: Its IC50 is 0.01 to 0.1 µM.

Question: With `O=C(NC1CCN(CC(F)(F)F)C1)c1nc(-n2ccnc2)nc2cc[nH]c12` (centres unmarked) [Example 68, 2-(1H-Imidazol-1-yl)-N-(1-(2,2,2-trifluoroethyl)pyrrolidin-3-yl)-5H-pyrrolo[3,2-d]pyrimidine-4-carboxamide] as the compound, how does the IC50 read?
Answer: Its IC50 is 0.01 to 0.1 µM.

Question: For `COCCO[C@H]1CC[C@H](NC(=O)c2nc(-c3cncs3)cc3nc[nH]c23)CC1` [Example 47, N-((1r,4r)-4-(2-Methoxyethoxy)cyclohexyl)-6-(thiazol-5-yl)-3H-imidazo[4,5-c]pyridine-4-carboxamide], which IC50 is on record?
Answer: Its IC50 is greater than 1 µM.

Question: For `Cc1cc2nc(-n3ccnc3)nc(C(=O)NC3CCC(F)(F)CC3)c2[nH]1` [Example 173], which IC50 is on record?
Answer: Its IC50 is less than 0.01 µM.

Question: Which IC50 does the source give for `COCCO[C@H]1CC[C@H](NC(=O)c2cc(-c3cncs3)cc3nc(C)[nH]c23)CC1` [Example 13, N-((1r,4r)-4-(2-Methoxyethoxy)cyclohexyl)-2-methyl-5-(thiazol-5-yl)-1H-benzo[d]imidazole-7-carboxamide] here?
Answer: The IC50 was 0.1 to 1 µM.

Question: With `COCCO[C@H]1CCC[C@H](NC(=O)c2nc(-n3ccnc3)nc3cc[nH]c23)C1` [Example 124a, 2-(1H-imidazol-1-yl)-N-((1S,3S)-3-(2-methoxyethoxy)cyclohexyl)-5H-pyrrolo[3,2-d]pyrimidine-4-carboxamide] as the compound, how does the IC50 read?
Answer: The IC50 was 0.01 to 0.1 µM.

Question: With `O=C(Nc1ccccn1)c1nc(-n2ccnc2)nc2cc[nH]c12` [Example 81, 2-(1H-Imidazol-1-yl)-N-(pyridin-2-yl)-5H-pyrrolo[3,2-d]pyrimidine-4-carboxamide] as the compound, how does the IC50 read?
Answer: Its IC50 is less than 0.01 µM.

Question: How did the IC50 turn out when `CN(C)CCOCCO[C@H]1CC[C@H](NC(=O)c2nc(-n3ccnc3)nc3cc[nH]c23)CC1` [Example 133] was run?
Answer: The IC50 was 0.01 to 0.1 µM.

Question: `COCCO[C@H]1CC[C@H](NC(=O)c2nc(-n3ccnc3C)nc3cc[nH]c23)CC1` [Example 34, N-((1r,4r)-4-(2-Methoxyethoxy)cyclohexyl)-2-(2-methyl-1H-imidazol-1-yl)-5H-pyrrolo[3,2-d]pyrimidine-4-carboxamide] was tested. Which IC50 did it give?
Answer: Its IC50 is greater than 1 µM.

Question: For `Cc1nc2cc(-n3ccnc3)cc(C(=O)NCc3c(F)cccc3C(F)(F)F)c2[nH]1` [Example 42, N-(2-Fluoro-6-(trifluoromethyl)benzyl)-5-(1H-imidazol-1-yl)-2-methyl-1H-benzo[d]imidazole-7-carboxamide], which IC50 is on record?
Answer: Its IC50 is 0.1 to 1 µM.

Question: How did the IC50 turn out when `C[C@H](O)[C@H]1CC[C@H](NC(=O)c2nc(-n3ccnc3)cc3cn[nH]c23)CC1` [Example 192a, N-((1S,4r)-4-((S)-1-hydroxyethyl)cyclohexyl)-5-(1H-imidazol-1-yl)-1H-pyrazolo[3,4-c]pyridine-7-carboxamide] was run?
Answer: The IC50 was less than 0.01 µM.
